Source: US11419335B2, “N-arylated analogues and uses thereof” (University of Florida Research Foundation, Incorporated, priority 2016, dated 2022)
Where two headings read alike, the source gives them in different places. Marks after values point to notes of the source that are not given here.

Experiments:
[1] = tested on: vancomycin-resistant Enterococcus faecium (VRE strain ATCC 700221); test: MIC broth microdilution, VRE 700221; format: cell-based; settings: for MIC E. faecium VRE 700221: Table 1A; for MIC VRE 700221: Table 4
Protocol: (§1) The minimum inhibitory concentration (MIC) for each tested compound was determined by the broth microdilution method as recommended by the Clinical and Laboratory Standards Institute (CLSI). In a 96-well plate, eleven two-fold serial dilutions of each compound were made in a final volume of 100 μL Luria Broth. Each well was inoculated with ˜10^5 bacterial cells at the initial time of incubation, prepared from a fresh log phase culture (OD600 of 0.5 to 1.0 depending on bacterial strain). The MIC was defined as the lowest concentration of compound that prevented bacterial growth after incubating 16 to 18 hours at 37° C. (MIC values were supported by spectrophotometric readings at OD600). DMSO served as our vehicle and negative control in each microdilution MIC assay. DMSO was serially diluted with a top concentration of 1% v/v.
as §1, with “for each compound was” for “for each tested compound was”, “Standards Institute (CLSI).^6 In a” for “Standards Institute (CLSI). In a”, “concentration of test compound that” for “concentration of compound that”, “37° C. The concentration range tested for each compound during this study was 0.10 to 100 μM. DMSO served” for “37° C. (MIC values were supported by spectrophotometric readings at OD600). DMSO served”, “1% v/v. All MIC values were obtained from a minimum of three independent experiments.” for “1% v/v.”

MRSA-2 biofilms = test: Calgary Biofilm Device assay (MBC/MBEC), MRSA-2; format: cell-based, Staphylococcus aureus; settings: Table 2A; CBD assay
Protocol: (§2) The lid of the Calgary device was then removed, washed and transferred to another 96-well plate containing 2-fold serial dilutions of the test compounds (the “challenge plate”). The total volume of media with compound in each well in the challenge plate is 150 μL. […] The lid was then removed from the challenge plate and MBC/MBEC values were determined using different final assays. […] The MBC values were determined as the concentration giving a lack of visible bacterial growth (i.e., turbidity). […] In select experiments, pegs from the Calgary device were removed from lead biofilm eradicators after final incubation, sonicated for 30 minutes in PBS and plated out to determine biofilm cell killing of lead biofilm-eradicating agents (i.e., colony forming unit per milliliter, CFU/mL).
(§3) Using a Calgary Biofilm Device, bacterial biofilms are established on pegs suspended to the bottom of a 96-well plate lid. Following biofilm establishment on lid pegs, lids are then transferred to new 96-well plates containing serial dilutions of test compound and allowed to incubate. After compound treatment, 96-well plate lids with pegs are once again transferred to 96-well plates containing fresh media. During this final phase of the assay, viable biofilms will grow and disperse planktonic cells into the media where they will grow and give a turbid well result. Conversely, wells that have no growth are a result of pegs that had eradicated bacterial biofilms. The lowest concentration at which no turbidity is observed is the minimum biofilm eradication concentration (MBEC). Using the Calgary Biofilm Device, both minimum biofilm eradication concentrations and minimum bactericidal concentrations (MBC) for planktonic bacterial can be determined using one assay from a single bacterial culture (FIG. 3A).

[2] = tested on: human red blood cells (hRBC); test: Hemolysis of red blood cells; format: cell-based
Protocol: The washing was repeated three times with the buffer. In a 96-well plate, test compounds were added to the buffer from DMSO stocks. […] The plate was then incubated for 1 hour at 37° C. After incubation, the plate was centrifuged for 5 minutes at 3,500 rpm. Then 80 μL of the supernatant was transferred to another 96-well plate and the optical density (OD) was read at 405 nm. DMSO served as our negative control (0% hemolysis) while Triton X served as our positive control (100% hemolysis). […] All reported data correspond to three independent experiments. Ten-point dose-response curves were generated in 96-well plates to determine 50% hemolysis (HC50 values) of red blood cells.
The washing was repeated three times with the buffer. In 96-well plate, the test compounds were added to the buffer. Then 50 μL of 2% of hRBCs in the buffer were added to the test plate to make the final concentrations ranging from 0.2 to 200 μM of each test compound. The plate was then incubated for 1 hour at 37° C. After incubation, the plate was centrifuged for 5 minutes at 3500 rpm and then 80 μL of the supernatant was transferred to another 96-well plate and the Optical Density (OD) was read at 405 nm. DMSO served as our negative control (0% haemolysis) and Triton X served as our positive control (100% haemolysis). The HC50 (concentration of test compound required to lyse red blood cells by 50%) was calculated by plotting the dose-response curve (not shown) with Graphpad Prism 6.0. All data were obtained from three independent haemolysis experiments.

[3] = tested on: methicillin-resistant Staphylococcus epidermidis (MRSE strain ATCC 35984); test: MIC broth microdilution, MRSE 35984; format: cell-based; settings: for MIC S. epidermidis MRSE 35984: Table 1A; for MIC MRSE 35984: Table 4
Protocol: as §1
as §1, with “for each compound was” for “for each tested compound was”, “Standards Institute (CLSI).^6 In a” for “Standards Institute (CLSI). In a”, “concentration of test compound that” for “concentration of compound that”, “37° C. The concentration range tested for each compound during this study was 0.10 to 100 μM. DMSO served” for “37° C. (MIC values were supported by spectrophotometric readings at OD600). DMSO served”, “1% v/v. All MIC values were obtained from a minimum of three independent experiments.” for “1% v/v.”

[4] = tested on: methicillin-resistant Staphylococcus aureus MRSA-2 (clinical isolate); test: MIC broth microdilution, MRSA-2; format: cell-based
Protocol: as §1
as §1, with “for each compound was” for “for each tested compound was”, “Standards Institute (CLSI).^6 In a” for “Standards Institute (CLSI). In a”, “concentration of test compound that” for “concentration of compound that”, “37° C. The concentration range tested for each compound during this study was 0.10 to 100 μM. DMSO served” for “37° C. (MIC values were supported by spectrophotometric readings at OD600). DMSO served”, “1% v/v. All MIC values were obtained from a minimum of three independent experiments.” for “1% v/v.”

[5] = tested on: Pseudomonas aeruginosa (PAO1); test: MIC broth microdilution, PAO1; format: cell-based
Protocol: as §1
as §1, with “for each compound was” for “for each tested compound was”, “Standards Institute (CLSI).^6 In a” for “Standards Institute (CLSI). In a”, “concentration of test compound that” for “concentration of compound that”, “37° C. The concentration range tested for each compound during this study was 0.10 to 100 μM. DMSO served” for “37° C. (MIC values were supported by spectrophotometric readings at OD600). DMSO served”, “1% v/v. All MIC values were obtained from a minimum of three independent experiments.” for “1% v/v.”

MRSA BAA-1707 biofilms = test: Calgary Biofilm Device assay (MBC/MBEC), MRSA BAA-1707; format: cell-based, Staphylococcus aureus; settings: Table 2A; CBD assay
Protocol: as §2, §3

VRE ATCC 700221 biofilms = test: Calgary Biofilm Device assay (MBC/MBEC), VRE 700221; format: cell-based, Enterococcus faecium; settings: Table 2A; CBD assay
Protocol: as §2, §3

[6] = tested on: Acinetobacter baumannii (ATCC 1794); test: MIC broth microdilution, A. baumannii 1794; format: cell-based; settings: for MIC A. baumannii 1794: Table 1A, in µM; for MIC A. bau. 1794: Table 4
Protocol: as §1
as §1, with “for each compound was” for “for each tested compound was”, “Standards Institute (CLSI).^6 In a” for “Standards Institute (CLSI). In a”, “concentration of test compound that” for “concentration of compound that”, “37° C. The concentration range tested for each compound during this study was 0.10 to 100 μM. DMSO served” for “37° C. (MIC values were supported by spectrophotometric readings at OD600). DMSO served”, “1% v/v. All MIC values were obtained from a minimum of three independent experiments.” for “1% v/v.”

MRSE ATCC 35984 biofilms = test: Calgary Biofilm Device assay (MBC/MBEC), MRSE 35984; format: cell-based, Staphylococcus epidermidis; settings: Table 2A; CBD assay
Protocol: as §2, §3

[7] = tested on: SA-156 (clinical isolate); test: MIC broth microdilution, SA-156; format: cell-based, Staphylococcus aureus
Protocol: as §1, with “The MIC was defined as the lowest concentration of compound that prevented bacterial growth after incubating 16 to 18 hours at 37° C.” left out
(§4) Each well was inoculated with ˜10^5 bacterial cells at the initial time of incubation, prepared from a fresh log phase culture (OD600 of 0.5 to 1.0 depending on bacterial strain). […] The concentration range tested for each compound during this study was 0.10 to 100 μM. DMSO served as our vehicle and negative control in each microdilution MIC assay. DMSO was serially diluted with a top concentration of 1% v/v. All MIC values were obtained from a minimum of three independent experiments.

[8] = tested on: SA-147 (clinical isolate); test: MIC broth microdilution, SA-147; format: cell-based, Staphylococcus aureus
Protocol: as §1, with “The MIC was defined as the lowest concentration of compound that prevented bacterial growth after incubating 16 to 18 hours at 37° C.” left out
as §4

MRSA BAA-44 = test: MIC broth microdilution, MRSA BAA-44; format: cell-based, Staphylococcus aureus
Protocol: as §1, with “The MIC was defined as the lowest concentration of compound that prevented bacterial growth after incubating 16 to 18 hours at 37° C.” left out
as §4

[9] = tested on: MRSA-1 (clinical isolate); test: MIC broth microdilution, MRSA-1; format: cell-based, Staphylococcus aureus
Protocol: as §1, with “The MIC was defined as the lowest concentration of compound that prevented bacterial growth after incubating 16 to 18 hours at 37° C.” left out
as §4

MRSA BAA-1707 = test: MIC broth microdilution, MRSA BAA-1707; format: cell-based, Staphylococcus aureus; settings: for MIC: read-out: MIC MRSA BAA-1707
Protocol: as §1, with “The MIC was defined as the lowest concentration of compound that prevented bacterial growth after incubating 16 to 18 hours at 37° C.” left out
as §4

[10] = tested on: SA-138 (clinical isolate); test: MIC broth microdilution, SA-138; format: cell-based, Staphylococcus aureus
Protocol: as §1, with “The MIC was defined as the lowest concentration of compound that prevented bacterial growth after incubating 16 to 18 hours at 37° C.” left out
as §4

[11] = tested on: SA-129 (clinical isolate); test: MIC broth microdilution, SA-129; format: cell-based, Staphylococcus aureus
Protocol: as §1, with “The MIC was defined as the lowest concentration of compound that prevented bacterial growth after incubating 16 to 18 hours at 37° C.” left out
as §4

[12] = tested on: methicillin-sensitive Staphylococcus aureus ATCC 29213; test: MIC broth microdilution, S. aureus 29213; format: cell-based
Protocol: as §1, with “The MIC was defined as the lowest concentration of compound that prevented bacterial growth after incubating 16 to 18 hours at 37° C.” left out
as §4

## CCCCCCCCCCCCCCCCn1cc[n+](Cc2ccc(F)cc2C(F)(F)F)c1C.[Br-] [Compound 16]
[1]
  MIC E. faecium VRE 700221: 1.56 µM
  MIC VRE 700221: 1.56 µM
[1]; Table 2A
  VRE MIC: 1.56 µM
MRSA-2 biofilms
  MRSA-2 MBC: 62.5/62.5 μM
  MRSA-2 MBEC: 62.5/62.5 μM
[2]; Table 1A
  HC50: 10.7 µM
[2]; Table 4, concentration required to lyse 50% of red blood cells
  RBC HC50: 10.7 µM
[3]
  MIC S. epidermidis MRSE 35984: 3.13 µM
  MIC MRSE 35984: 3.13 µM
[3]; Table 2A, read-out: MRSE 35984 MIC
  MIC: 3.13 µM
[4]; Table 1A
  MIC MRSA-2: 3.13 µM
[4]; Table 2A
  MRSA-2 MIC: 3.13 µM
[4]; Table 4
  MIC MRSA-2: 3.13 µM
[5]; Table 1A
  MIC PAO1: > 100 µM
[5]; Table 4
  MIC PAO1: >100 µM
MRSA BAA-1707 biofilms
  MRSA BAA-1707 MBC: 62.5^b/ μM
  MRSA BAA-1707 MBEC: 93.8^a μM
VRE ATCC 700221 biofilms
  VRE MBC: 2.0 µM⁻¹
  VRE MBEC: 3.0^a μM
[6]
  MIC A. baumannii 1794: >100
  MIC A. bau. 1794: >100 µM
MRSE ATCC 35984 biofilms
  MRSE 35984 MBC: 23.5^a/ μM
  MRSE 35984 MBEC: 23.5^a μM

## CCCCCCCCCCCCCCCCn1cc[n+](Cc2cccc(OC)c2)c1C.[Br-] [Compound 17]
[7]; Table 1B
  MIC SA-156: 2.35^a μM
[7]; Table 3
  MIC SA-156: 2.35^a μM
[1]
  MIC E. faecium VRE 700221: 1.56 µM
  MIC VRE 700221: 1.56 µM
[8]; Table 1B
  MIC SA-147: 2.35^a μM
[8]; Table 3
  MIC SA-147: 2.35^a μM
[3]
  MIC S. epidermidis MRSE 35984: 2.35^a
  MIC MRSE 35984: 2.35a micromolar
MRSA BAA-44; Table 1B
  MIC MRSA BAA-44: 2.35^a μM
MRSA BAA-44; Table 3
  MIC MRSA BAA-44: 2.35^a μM
[9]; Table 1B
  MIC MRSA-1: 4.69^a μM
[9]; Table 3
  MIC MRSA-1: 4.69^a μM
[4]; Table 1A
  MIC MRSA-2: 1.56 µM
[4]; Table 1B
  MIC MRSA-2: 2.35^a μM
[4]; Table 3
  MIC MRSA-2: 2.35^a μM
[4]; Table 4
  MIC MRSA-2: 2.35a micromolar
[5]; Table 1A
  MIC PAO1: > 100 µM
[5]; Table 4
  MIC PAO1: >100 µM
MRSA BAA-1707; Table 1B
  MIC: 1.56 µM
MRSA BAA-1707; Table 3
  MIC: 1.56 µM
MRSA BAA-1707; Table 4
  MIC MRSA 1707: 1.56 µM
[10]; Table 1B
  MIC: 3.13 µM
[10]; Table 3
  MIC: 3.13 µM
[11]; Table 1B
  MIC: 3.13 µM
[11]; Table 3
  MIC: 3.13 µM
[12]; Table 1B
  MIC: 3.13 µM
[12]; Table 3
  MIC: 3.13 µM
[6]
  MIC A. baumannii 1794: >100*
  MIC A. bau. 1794: >100 µM
